Where a name gives a salt, the structure may show the parent alone.
Test system: Passive Cutaneous Anaphylaxis in male mouse
Assay: Passive cutaneous anaphylaxis (PCA), evans blue in ears
Type: in vivo
Protocol: Anti-DNP (anti-Dinitrophenyl) of 1.2 ug/mL, […], Sigma was injected by 10 ul into both ears of a male mouse, and 47 hours after antibody Dinitrophenyl injection, the sample is oral-administrated. One hour later (48 hours after antibody-Dinitrophenyl injection), 1.25 mg of DNP-albumin, […], Sigma and a biological salt solution dissolved with 1.25 mg of evans blue, […], Sigma was injected into a tail vein for thereby causing a certain reaction. Neck back bone was broken, and the mouse was dead, and the evans blue color component was measured from both ears. As control groups, promethazine hydrochloride, […], Sigma was used.

SMILES: CC(CN1c2ccccc2Sc2ccccc21)N(C)C (stereo not drawn) [Promethazine hydrochloride, promethazine hydrochloride]
- Amount of Color (administration amount 2, oral): 7.8 ± 0.5 ug/a pair of ears
- Amount of Color (administration amount 5, oral): 5.4 ± 1.1 ug/a pair of ears
- Amount of Color (administration amount 10, oral): 1.7 ± 1.0 ug/a pair of ears

— US20090285917A1, “COMPOSITION COMPRISING COMPLEX CRUDE DRUG EXTRACTS SHOWING ANTI-ALLERGIC RHINITIS, ANTI-ATOPIC DERMATITIS AND ANTI-ASTHMA ACTIVITY” (priority 2006, published 2009)
